From ChEMBL document CHEMBL1146702, “Synthesis and nicotinic receptor activity of a hydroxylated tropane” (Bioorg Med Chem Lett, 2004)

Key:
[1] = molecular target: Neuronal acetylcholine receptor; test: Binding affinity against nicotinic acetylcholine receptor using [3H]epibatidine as radioligand in rat brain tissue; type: tissue-based
[2] = molecular target: T1, Neuronal acetylcholine receptor; alpha3/beta4 (Homo sapiens, UniProt P30926+P32297); test: Agonistic potency against nicotinic acetylcholine receptor alpha3-beta4; type: functional
T1 sequence (P30926 whole entry): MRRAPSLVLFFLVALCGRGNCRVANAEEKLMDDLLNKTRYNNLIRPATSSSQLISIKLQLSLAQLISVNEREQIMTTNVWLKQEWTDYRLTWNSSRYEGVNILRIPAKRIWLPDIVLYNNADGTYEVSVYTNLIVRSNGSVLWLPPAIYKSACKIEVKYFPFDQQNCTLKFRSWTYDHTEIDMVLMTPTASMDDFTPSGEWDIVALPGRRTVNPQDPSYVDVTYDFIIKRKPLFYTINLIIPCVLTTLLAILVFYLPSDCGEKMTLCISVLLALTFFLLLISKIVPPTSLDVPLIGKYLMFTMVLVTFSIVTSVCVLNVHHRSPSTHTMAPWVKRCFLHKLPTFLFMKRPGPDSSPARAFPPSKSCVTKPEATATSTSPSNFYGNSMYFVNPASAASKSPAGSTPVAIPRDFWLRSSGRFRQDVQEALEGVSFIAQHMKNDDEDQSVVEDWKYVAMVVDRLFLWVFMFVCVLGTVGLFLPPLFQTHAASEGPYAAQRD
T1 sequence (P32297 whole entry): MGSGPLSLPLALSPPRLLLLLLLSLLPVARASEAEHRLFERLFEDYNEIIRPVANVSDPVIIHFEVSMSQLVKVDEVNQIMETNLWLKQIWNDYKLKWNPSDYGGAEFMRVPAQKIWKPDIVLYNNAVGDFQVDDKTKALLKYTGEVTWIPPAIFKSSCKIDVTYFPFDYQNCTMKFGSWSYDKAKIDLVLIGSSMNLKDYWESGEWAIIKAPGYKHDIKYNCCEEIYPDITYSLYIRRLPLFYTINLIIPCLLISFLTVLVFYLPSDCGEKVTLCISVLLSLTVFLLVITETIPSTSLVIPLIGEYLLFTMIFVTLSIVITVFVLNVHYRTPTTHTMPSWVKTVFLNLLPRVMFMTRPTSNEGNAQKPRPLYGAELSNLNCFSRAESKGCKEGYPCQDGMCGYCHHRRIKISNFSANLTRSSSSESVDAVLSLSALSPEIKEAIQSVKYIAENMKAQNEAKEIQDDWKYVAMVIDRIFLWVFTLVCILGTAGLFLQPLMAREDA

[3] = molecular target: T1, Neuronal acetylcholine receptor; alpha3/beta4; test: Binding affinity against nicotinic acetylcholine receptor alpha3-beta4 using [3H]epibatidine as radioligand expressed in HEK293 cells or tsA cells; type: cell-based
[4] = molecular target: Neuronal acetylcholine receptor; alpha4/beta4 (Homo sapiens, UniProt P30926+P43681); test: Binding affinity against nicotinic acetylcholine receptor alpha4-beta4 using [3H]epibatidine as radioligand expressed in HEK293 cells or tsA cells; type: cell-based
Chain of Neuronal acetylcholine receptor; alpha4/beta4 (P30926 whole entry): as the sequence (P30926 whole entry) above
Chain of Neuronal acetylcholine receptor; alpha4/beta4 (P43681 whole entry): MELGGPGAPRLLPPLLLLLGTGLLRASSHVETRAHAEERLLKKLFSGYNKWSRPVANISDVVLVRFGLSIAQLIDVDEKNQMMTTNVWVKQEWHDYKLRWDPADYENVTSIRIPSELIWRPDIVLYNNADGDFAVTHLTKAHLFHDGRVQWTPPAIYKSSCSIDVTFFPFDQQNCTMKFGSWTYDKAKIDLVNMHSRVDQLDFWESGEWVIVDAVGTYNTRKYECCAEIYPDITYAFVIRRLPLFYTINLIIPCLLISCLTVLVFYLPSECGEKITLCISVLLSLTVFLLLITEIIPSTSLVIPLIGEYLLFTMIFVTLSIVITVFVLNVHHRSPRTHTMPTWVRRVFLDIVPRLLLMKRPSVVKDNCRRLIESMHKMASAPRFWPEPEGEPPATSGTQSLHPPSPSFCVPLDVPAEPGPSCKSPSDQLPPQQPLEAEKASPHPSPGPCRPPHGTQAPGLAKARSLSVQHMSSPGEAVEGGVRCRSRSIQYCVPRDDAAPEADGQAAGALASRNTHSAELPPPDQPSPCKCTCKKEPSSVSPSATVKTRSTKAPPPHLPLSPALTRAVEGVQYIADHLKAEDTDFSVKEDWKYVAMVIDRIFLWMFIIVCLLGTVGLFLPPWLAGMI

[5] = molecular target: Neuronal acetylcholine receptor; alpha4/beta2 (Homo sapiens, UniProt P17787+P43681); test: Binding affinity against nicotinic acetylcholine receptor alpha4-beta2 using [3H]epibatidine as radioligand expressed in HEK293 cells or tsA cells; type: cell-based
Chain of Neuronal acetylcholine receptor; alpha4/beta2 (P17787 whole entry): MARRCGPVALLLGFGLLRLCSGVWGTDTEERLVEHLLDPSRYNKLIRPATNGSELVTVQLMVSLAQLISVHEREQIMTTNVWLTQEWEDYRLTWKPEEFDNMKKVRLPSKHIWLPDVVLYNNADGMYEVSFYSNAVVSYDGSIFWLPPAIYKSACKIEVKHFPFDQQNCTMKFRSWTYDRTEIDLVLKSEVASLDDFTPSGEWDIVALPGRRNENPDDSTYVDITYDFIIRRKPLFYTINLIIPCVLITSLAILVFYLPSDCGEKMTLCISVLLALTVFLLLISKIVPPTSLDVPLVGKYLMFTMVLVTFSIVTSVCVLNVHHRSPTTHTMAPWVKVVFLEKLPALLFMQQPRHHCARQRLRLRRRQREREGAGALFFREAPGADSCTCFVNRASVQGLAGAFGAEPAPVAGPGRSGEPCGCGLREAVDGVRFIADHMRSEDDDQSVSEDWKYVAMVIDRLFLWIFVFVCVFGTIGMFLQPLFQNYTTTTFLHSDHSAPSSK
Chain of Neuronal acetylcholine receptor; alpha4/beta2 (P43681 whole entry): as the sequence (P43681 whole entry) above

[6] = molecular target: Neuronal acetylcholine receptor; alpha2/beta4 (Homo sapiens, UniProt P30926+Q15822); test: Binding affinity against nicotinic acetylcholine receptor alpha2-beta4 using [3H]epibatidine as radioligand expressed in HEK293 cells or tsA cells; type: cell-based
Chain of Neuronal acetylcholine receptor; alpha2/beta4 (P30926 whole entry): as the sequence (P30926 whole entry) above
Chain of Neuronal acetylcholine receptor; alpha2/beta4 (Q15822 whole entry): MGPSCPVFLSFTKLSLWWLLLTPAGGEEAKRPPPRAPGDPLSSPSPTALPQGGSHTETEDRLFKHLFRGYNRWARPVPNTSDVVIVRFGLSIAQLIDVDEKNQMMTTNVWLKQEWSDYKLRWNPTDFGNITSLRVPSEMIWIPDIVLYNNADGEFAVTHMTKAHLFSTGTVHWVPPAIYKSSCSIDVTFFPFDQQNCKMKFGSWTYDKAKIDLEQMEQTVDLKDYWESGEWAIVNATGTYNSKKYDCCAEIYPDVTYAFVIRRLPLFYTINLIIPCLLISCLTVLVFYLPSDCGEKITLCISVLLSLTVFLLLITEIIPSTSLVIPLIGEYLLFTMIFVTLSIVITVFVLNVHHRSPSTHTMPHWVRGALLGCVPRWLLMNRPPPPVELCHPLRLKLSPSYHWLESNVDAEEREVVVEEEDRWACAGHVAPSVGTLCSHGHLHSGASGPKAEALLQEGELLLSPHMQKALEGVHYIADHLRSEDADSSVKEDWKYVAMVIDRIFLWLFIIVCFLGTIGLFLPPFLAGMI

| SMILES | Ki [1] | EC50 [2] | Ki [3] | Ki [4] | Ki [5] | Ki [6] |
| --- | --- | --- | --- | --- | --- | --- |
| OC1CC2CC(c3ccc(Cl)nc3)C(C1)N2 (stereo not drawn) | 18 nM | 2100 nM | 88 nM | 38 nM | 7.4 nM | 31 nM |
| Clc1ccc(C2CC3CCC2N3)cn1 (stereo not drawn) [EPIBATIDINE] |  |  |  |  |  | 0.091 nM |
| CN1CCC[C@H]1c1cccnc1 [NICOTINE] |  |  |  |  |  | 103 nM |
